One assay addresses T1, hEP4/Gqs5 (Homo sapiens, UniProt P35408).
T1 construct: expressed in transfected cells; host or cells: HEK-293 (EBNA)
Briefly: FLIPR calcium signal, hEP4/Gqs5. To be noted: HEK-293 (EBNA) cells, read-out: FUNCTIONAL EC50 HEP4. Type of assay: cell-based. The protocol: (§1) HEK-293 (EBNA) cells, stably expressing one type or subtype of recombinant human prostaglandin receptors (prostaglandin receptors expressed: hDP/Gqs5; hEP1; hEP2/Gqs5; hEP3A/Gqi5; hEP4/Gqs5; hFP; hIP; hTP), were cultured in 100 mm culture dishes in high-glucose DMEM medium containing 10% fetal bovine serum, 2 mM 1-glutamine, 250 μg/ml geneticin (G418) and 200 μg/ml hygromycin B as selection markers, and 100 units/ml penicillin G, 100 μg/ml streptomycin and 0.25 μg/ml amphotericin B. • (b) Calcium Signal Studies on the FLIPR™
(§2) Cells were seeded at a density of 5×10^4 cells per well in Biocoat® Poly-D-lysine-coated black-wall, clear-bottom 96-well plates (Becton-Dickinson) and allowed to attach overnight in an incubator at 37° C. Cells were then washed two times with HBSS-HEPES buffer (Hanks Balanced Salt Solution without bicarbonate and phenol red, 20 mM HEPES, pH 7.4) using a Denley Cellwash plate washer (Labsystems). After 45 minutes of dye-loading in the dark, using the calcium-sensitive dye Fluo-4 AM at a final concentration of 2 μM, plates were washed four times with HBSS-HEPES buffer to remove excess dye leaving 100 μl in each well. Plates were re-equilibrated to 37° C. for a few minutes.
(§3) Cells were excited with an Argon laser at 488 nm, and emission was measured through a 510–570 nm bandwidth emission filter (FLIPR™, Molecular Devices, Sunnyvale, Calif.). Drug solution was added in a 50 μl volume to each well to give the desired final concentration. The peak increase in fluorescence intensity was recorded for each well. On each plate, four wells each served as negative (HBSS-HEPES buffer) and positive controls (standard agonists: BW245C (hDP); PGE2 (hEP1; hEP2/Gqs5; hEP3A/Gqi5; hEP4/Gqs5); PGF2α (hFP); carbacyclin (hIP); U46619 (hTP), depending on receptor). The peak fluorescence change in each drug-containing well was then expressed relative to the controls.
(§4) Compounds were tested in a high-throughput (HTS) or concentration-response (CoRe) format. In the HTS format, forty-four compounds per plate were examined in duplicates at a concentration of 10^−5 M. To generate concentration-response curves, four compounds per plate were tested in duplicates in a concentration range between 10^−5 and 10^−11 M. The duplicate values were averaged. In either, HTS or CoRe format each compound was tested on at least 3 separate plates using cells from different passages to give an n≧3.

The target in the next assay is T2, HEP4 (Homo sapiens, UniProt P35408).
T2 construct: expressed in transfected cells; host or cells: HEK-293
T2 sequence (P35408 whole entry): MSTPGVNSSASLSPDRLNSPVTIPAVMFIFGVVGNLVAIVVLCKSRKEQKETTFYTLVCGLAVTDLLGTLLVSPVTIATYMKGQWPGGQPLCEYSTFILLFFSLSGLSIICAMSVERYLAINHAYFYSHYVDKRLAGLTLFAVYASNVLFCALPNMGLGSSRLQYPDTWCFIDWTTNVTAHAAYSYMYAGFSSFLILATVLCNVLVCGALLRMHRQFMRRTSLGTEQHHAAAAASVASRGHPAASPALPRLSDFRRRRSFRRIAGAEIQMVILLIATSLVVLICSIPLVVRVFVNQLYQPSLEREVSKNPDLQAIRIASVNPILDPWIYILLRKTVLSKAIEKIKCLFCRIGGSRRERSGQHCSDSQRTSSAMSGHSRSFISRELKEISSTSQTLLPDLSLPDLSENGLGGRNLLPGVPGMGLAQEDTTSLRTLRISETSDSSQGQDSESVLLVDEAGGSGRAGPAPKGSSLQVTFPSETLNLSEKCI
Briefly: Radioligand binding, EP4 receptor. To be noted: [3H]PGE2 5 nM, HEK-293 membranes. As to the method:
(§5) HEK-293 cells stably expressing the human or feline FP receptor, or EP1, EP2, or EP4 receptors were washed with TME buffer, scraped from the bottom of the flasks, and homogenized for 30 sec using a Brinkman PT 10/35 polytron. TME buffer was added to achieve a final 40 ml volume in the centrifuge tubes (the composition of TME is 100 mM TRIS base, 20 mM MgCl2, […]; 10N HCl is added to achieve a pH of 7.4).
(§6) The cell homogenate was centrifuged at 19000 r.p.m. for 20 min at 4° C. using a Beckman Ti-60 rotor. The resultant pellet was resuspended in TME buffer to give a final 1 mg/ml protein concentration, as determined by Biorad assay. Radioligand binding competition assays vs. [^3H-]17-phenyl PGF2α (5 nM) were performed in a 100 μl volume for 60 min. Binding reactions were started by adding plasma membrane fraction. The reaction was terminated by the addition of 4 ml ice-cold TRIS-HCl buffer and rapid filtration through glass fiber GF/B filters using a Brandel cell harvester. The filters were washed 3 times with ice-cold buffer and oven dried for one hour. Non-specific binding was determined with 10 uM unlabeled 17-phenyl PGF2α.
(§7) [^3H-] PGE2 (5 nM; specific activity 180 Ci mmol) was used as the radioligand for EP receptors. Binding studies employing EP1, EP2, EP3, EP4 were performed in duplicate in at least three separate experiments. A 200 μl assay volume was used. Incubations were for 60 min at 25° C. and were terminated by the addition of 4 ml of ice-cold 50 mM TRIS-HCl, followed by rapid filtration through Whatman GF/B filters and three additional 4 ml washes in a cell harvester (Brandel). Non-specific binding determined with 10^−5M of unlabeled PGE2.

A further assay has as its target T3, HEP3D (Homo sapiens, UniProt P43115).
T3 sequence (P43115 1-374 isoform P43115-4): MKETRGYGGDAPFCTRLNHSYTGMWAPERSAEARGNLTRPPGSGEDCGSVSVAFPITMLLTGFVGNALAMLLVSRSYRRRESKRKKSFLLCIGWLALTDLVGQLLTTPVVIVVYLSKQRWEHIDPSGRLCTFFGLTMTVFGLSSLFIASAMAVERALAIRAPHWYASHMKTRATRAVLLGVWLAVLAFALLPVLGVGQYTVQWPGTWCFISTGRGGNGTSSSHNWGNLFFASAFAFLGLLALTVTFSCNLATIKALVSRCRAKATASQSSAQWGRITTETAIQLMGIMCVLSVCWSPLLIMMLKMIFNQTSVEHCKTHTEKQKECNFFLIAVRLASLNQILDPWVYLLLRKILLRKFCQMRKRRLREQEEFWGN
Briefly: Radioligand binding, EP3 receptor. The following applies: [3H]PGE2 5 nM. The protocol: as §5, §6, §7

The target in the next assay is T4, hEP3A/Gqi5 (Homo sapiens, UniProt P43115).
T4 construct: expressed in transfected cells; host or cells: HEK-293 (EBNA)
T4 sequence (P43115 1-390): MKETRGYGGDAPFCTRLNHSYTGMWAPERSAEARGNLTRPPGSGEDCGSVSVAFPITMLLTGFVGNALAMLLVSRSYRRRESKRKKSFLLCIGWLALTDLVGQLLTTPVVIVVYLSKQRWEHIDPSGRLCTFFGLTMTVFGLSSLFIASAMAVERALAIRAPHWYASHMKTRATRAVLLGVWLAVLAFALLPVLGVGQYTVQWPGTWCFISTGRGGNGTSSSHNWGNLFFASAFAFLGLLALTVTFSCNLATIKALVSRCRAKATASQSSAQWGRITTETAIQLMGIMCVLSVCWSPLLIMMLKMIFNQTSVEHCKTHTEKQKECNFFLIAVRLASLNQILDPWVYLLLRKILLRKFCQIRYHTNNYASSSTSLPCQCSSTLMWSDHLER
Briefly: FLIPR calcium signal, hEP3A/Gqi5. The format is cell-based. The following applies: HEK-293 (EBNA) cells, read-out: FUNCTIONAL EC50 HEP3A. As to the method: as §1, §2, §3, §4

pEC50, pIC50: −log10 of the molar value. Where only a bound is given, the exact number is not on record here.

T1 sequence (P35408 whole entry): as the sequence (P35408 whole entry) above

For `O=C(O)CSCCCS[C@H]1C(=O)C[C@@H](CO)[C@@H]1/C=C/C(O)CCc1cc2ccccc2s1` (single isomer, unassigned) [drawing 31], the negative logarithm of the EC50 (pEC50) (in general, −log10 of the EC50, conventionally taken in molar units) on hEP4/Gqs5 is 6.44. On HEP4, the pIC50 (in general, −log10 of the IC50, conventionally taken in molar units) was 5.89.
In the same order, the values of `COC(=O)CSCCCS[C@H]1C(=O)C[C@@H](CO)[C@@H]1/C=C/C(O)CCc1cc2ccccc2s1` (stereo partly drawn) [drawing 29, {3-[(1R,2S,3R)-2-((E)-5-Benzo[b]thiophen-2-yl-3-hydroxy-pent-1-enyl)-3-hydroxymethyl-5-oxo-cyclopentylsulfanyl]-propylsulfanyl}-acetic acid methyl ester] are 5.10 and 5.68.
In the same order, the values of `O=C(O)CSCCCS[C@H]1C(=O)C[C@@H](CO)[C@@H]1/C=C/C(O)CCc1ccc2ccccc2c1` (stereo partly drawn) [drawing 40, {3-[(1R,2S,3R)-3-Hydroxymethyl-2-((E)-3-hydroxy-5-naphthalen-2-yl-pent-1-enyl)-5-oxo-cyclopentylsulfanyl]-propylsulfanyl}-acetic acid] are 6.33 and 6.00.
In the same order, the values of `COC(=O)CSCCCS[C@H]1C(=O)C[C@@H](CO)[C@@H]1/C=C/C(O)CCc1cc2ccccc2s1` (stereo partly drawn) [drawing 30, {3-[(1R,2S,3R)-2-((E)-5-Benzo[b]thiophen-2-yl-3-hydroxy-pent-1-enyl)-3-hydroxymethyl-5-oxo-cyclopentylsulfanyl]-propylsulfanyl}-acetic acid methyl ester] are less than 5.00 and 5.72.
For the compound `COC(=O)CSCCCS[C@H]1C(=O)C[C@@H](CO)[C@@H]1/C=C/C(O)CCc1ccc2ccccc2c1` (single isomer, unassigned) [drawing 38], on hEP4/Gqs5, the pEC50 is 5.63. This compound also had a pIC50 at HEP4 of 5.80.
In the case of `COC(=O)CSCCCS[C@H]1C(=O)C[C@@H](CO)[C@@H]1/C=C/C(O)Cc1ccccc1` (single isomer, unassigned) [drawing 43], the pEC50 at hEP4/Gqs5 was 5.68. In addition, the pIC50 at HEP4 was 5.98.
In the same order, the values of `COC(=O)CSCCCS[C@H]1C(=O)CC[C@@H]1/C=C/C(O)CCc1cc2ccccc2s1` (stereo partly drawn) [drawing 27, {3-[(1R,2R)-2-((E)-5-Benzo[b]thiophen-2-yl-3-hydroxy-pent-1-enyl)-5-oxo-cyclopentylsulfanyl]-propylsulfanyl}-acetic acid methyl ester] are 8.11 and 6.52.
For the compound `COC(=O)CSCCCS[C@H]1C(=O)CC[C@@H]1/C=C/C(O)CCc1ccc2ccccc2c1` (stereo partly drawn) [drawing 34, {3-[(1R,2R)-2-((E)-3-Hydroxy-5-naphthalen-2-yl-pent-1-enyl)-5-oxo-cyclopentylsulfanyl]-propylsulfanyl}-acetic acid methyl ester], the pEC50 on hEP4/Gqs5 is 9.30. On HEP4, the pIC50 was 6.52.
The like results for `COC(=O)CSCCCS[C@H]1C(=O)CC[C@@H]1/C=C/C(O)Cc1ccccc1` (single isomer, unassigned) [drawing 45] were, in that order, 7.82 and 6.85.
As to `O=C(O)CSCCCS[C@H]1C(=O)C[C@@H](CO)[C@@H]1/C=C/C(O)CCc1cc2ccccc2s1` (single isomer, unassigned) [drawing 32], the pEC50 on hEP4/Gqs5 is 6.33. Moreover, the pIC50 on HEP4 was 7.00.
In the case of `COC(=O)CSCCCS[C@H]1C(=O)CC[C@@H]1/C=C/C(C)(O)CCc1ccc2ccccc2c1` (stereo partly drawn) [{3-[(1R,2R)-2-((E)-3-Hydroxy-3-methyl-5-naphthalen-2-yl-pent-1-enyl)-5-oxo-cyclopentylsulfanyl]-propylsulfanyl}-acetic acid methyl ester], the pEC50 at hEP4/Gqs5 was 7.34. The pIC50 at HEP4 is 6.30.
Consider `COC(=O)CSCCCS[C@H]1C(=O)CC[C@@H]1/C=C/C(O)Cc1ccc2ccccc2c1` (stereo partly drawn) [{3-[(1R,2R)-2-((E)-3-Hydroxy-4-naphthalen-2-yl-but-1-enyl)-5-oxo-cyclopentylsulfanyl]-propylsulfanyl}-acetic acid methyl ester], for which the pIC50 was 7.08 on HEP4 and less than 5.00 at HEP3D.
For the compound `O=C(O)CSCCCS[C@H]1C(=O)C[C@@H](CO)[C@@H]1/C=C/C(O)Cc1ccccc1` (single isomer, unassigned) [drawing 50], the pEC50 at hEP4/Gqs5 was 6.87. In addition, the pIC50 on HEP4 was 6.36.
With `O=C(O)CSCCCS[C@H]1C(=O)CC[C@@H]1/C=C/C(O)Cc1ccccc1` (single isomer, unassigned) [drawing 47], the pEC50 on hEP4/Gqs5 was 7.22; at hEP3A/Gqi5 it was less than 5.00. For the same compound, the pIC50 was 7.26 at HEP4 and less than 5.00 at HEP3D.
With `COC(=O)CSCCCS[C@H]1C(=O)CC[C@@H]1/C=C/C(O)CCc1ccc2ccccc2c1` (stereo partly drawn) [drawing 35, {3-[(1R,2R)-2-((E)-3-Hydroxy-5-naphthalen-2-yl-pent-1-enyl)-5-oxo-cyclopentylsulfanyl]-propylsulfanyl}-acetic acid methyl ester], the pEC50 at hEP4/Gqs5 was 9.22. Also, on HEP4, the negative logarithm of the IC50 (pIC50) is 6.70.
The like results for `COC(=O)CSCCCS[C@H]1C(=O)C[C@@H](CO)[C@@H]1/C=C/C(O)Cc1ccccc1` (single isomer, unassigned) [drawing 42] were, in that order, 6.97 and 6.71.

Values taken from patent publication US7183324B2, “2,3,4-substituted cyclopentanones as therapeutic agents” (Allergan, Inc., priority 2004, dated 2007).
